Measurements: patent publication US5252589A, “Benzocycloheptene derivative and process for preparation thereof” (Tanabe Seikayu Co., Ltd., priority 1992, dated 1993)
Where “and” joins values, the source holds several entries; their conditions need not be identical. Equal values may be shown once.

Legend:
urinary bladder = assay: Inhibitory effect on urinary bladder contractions (carbachol-induced, isolated rat urinary bladder); conditions: Tyrode solution 37° C., contraction by 1×10^-5 M carbachol, compound added 5 minutes before carbachol, read-out: IC50, concentration of the test compound required to induce 50% inhibition of the pressure
Method: (Inhibitory effect on urinary bladder contractions)
Rats (body weight: 250 to 450 g) were used as the test animals. […] Urinary bladder was filled with 0.8 ml of a physiological saline solution. An ureteral catheter was inserted into the urinary bladder and one end of the catheter was connected to a pressure transducer. The change in intravesical pressure of the bladder was recorded. Contraction was induced by adding 1×10^-5 M carbachol at 30 minutes intervals. After the contraction became stable, the test compound was added to the Tyrode solution 5 minutes before the addition of carbachol.

[1] = Acute oral toxicity in mice; format: in vivo; conditions: 500 mg/kg
Method: For example, when (±)-cis-5-(2-thienyl)-7-isopropylamino-6,7,8,9-tetrahydro-5H-benzocyclohepten-5-ol was orally administered to mice at a dose of 500 mg/kg, no mouse died two days after the administration thereof.

Compound | IC50 (urinary bladder) | mortality two days after oral administration [1]
O[C@@]1(c2cccs2)C[C@@H](N2CCCCC2)CCc2ccccc21 (racemic) [(±)-cis-5-(2-thienyl)-7-(1-piperidinyl)-6,7,8,9-tetrahydro-5H-benzocyclohepten-5-ol] | 700 nM | 
CCN(CC)[C@H]1CCc2ccccc2[C@](O)(c2cccs2)C1 (racemic) [(±)-cis-5-(2-thienyl)-7-diethylamino-6,7,8,9-tetrahydro-5H-benzocyclohepten-5-ol] | 1100 nM | 
(±)-cis-5-(2-thienyl)-7-isopropylamino-6,7,8,9-tetrahydro-5H-benzocyclohepten-5-ol | 2600 nM and 2200 nM | no mouse died
